Reference: patent publication US8952150B2, “Prostaglandin transporter inhibitors and uses thereof” (Albert Einstein College of Medicine of Yeshiva University, priority 2009, dated 2015)

Molecular target: rat PGT (Rattus norvegicus (Rat), UniProt Q00910)
Assay: [3H]PGE2 uptake inhibition in MDCK cells stably transfected with rat PGT (percent inhibition and IC50)
Assay type: cell-based
Details: for Inh (% of Ctl) 1 μM: 1 μM compound; for Inh (% of Ctl) 1 μM / Inh (% of Ctl) 5 μM / Inh (% of Ctl) 10 μM / Inh (% of Ctl) 0.5 μM / Inh (% of Ctl) 2.5 μM / Inh (% of Ctl) 0.1 μM: inhibition of [3H]PGE2 uptake; for Inh (% of Ctl) 5 μM: 5 μM compound; for Inh (% of Ctl) 10 μM: 10 μM compound; for Inh (% of Ctl) 0.5 μM: 0.5 μM compound; for Inh (% of Ctl) 2.5 μM: 2.5 μM compound; for Inh (% of Ctl) 0.1 μM: 0.1 μM compound; for IC50: [3H]PGE2 uptake, MDCK cells stably transfected with rat PGT
Protocol: MDCK cells stably transfected with rat PGT (Endo et al., 2002) were seeded at 15-20% confluence on 24-well plates. The day on which the cells were seeded was considered day 1. PGE2 uptake experiments were conducted on day 4. All of the PGE2 uptake experiments were conducted at room temperature. On day 4, cells were washed twice with Waymouth buffer (135 mM NaCl, 13 mM H-Hepes, 13 mM Na-Hepes, 2.5 mM CaCl2, 1.2 mM MgCl2, 0.8 mM MgSO4, 5 mM KCl, and 28 mM D-glucose). Then 200 μL of Waymouth buffer containing [^3H]PGE2 (purchased from Perkin Elmer) was added to each well. At the designed time, the uptake of [^3H]PGE2 was stopped by aspiration of uptake buffer; this was followed by immediate washing twice with 500 μL of chilled Waymouth buffer. Cells were then lysed with 100 μL lysis buffer containing 0.25% SDS and 0.05 N NaOH. 1.5 mL of scintillation solution was added to each well, and intracellular [^3H]PGE2 was counted by MicroBeta Counter.
For preliminary testing of the compounds, 20 μL of Waymouth buffer containing the compound was added to each well; this was immediately followed by the addition of 180 μL of Waymouth buffer containing [^3H]PGE2. In each well, the total volume of uptake medium was 200 μL. Organic compounds were first dissolved in EtOH and then diluted in Waymouth buffer. The percent inhibition of [^3H]PGE2 uptake by compounds was calculated as [(uptakevehicle−uptakeinhibitor)÷(uptakevehicle)]×100.
IC50 was calculated by fitting an equation of y=m1−m1*(m0/(m2+m0)).

Inh (% of Ctl) 1 μM | Inh (% of Ctl) 5 μM | Inh (% of Ctl) 10 μM | Inh (% of Ctl) 0.5 μM | Inh (% of Ctl) 2.5 μM | Inh (% of Ctl) 0.1 μM | IC50 [nM] | SMILES
8.4 % of Ctl | 10.1 % of Ctl | 12.5 % of Ctl | – | – | – | – | O=C(NCCOCCOCCNc1nc(Nc2ccccc2)nc(Nc2ccc3cn[nH]c3c2)n1)c1ccccc1 [compound 75]
– | 72.7 % of Ctl | – | 23.4 % of Ctl | 60.6 % of Ctl | – | – | O=C(NCCOCCOCCNc1nc(Nc2ccc(O)cc2)nc(Nc2ccc(C(=O)NCc3cccc(-c4ccccc4)c3)cc2)n1)c1ccccc1 [compound 90]
39.2 % of Ctl | – | – | 20.1 % of Ctl | – | 8.4 % of Ctl | – | O=C(NCCOCCOCCNc1nc(Nc2ccc(C(=O)NCc3ccc(F)cc3)cc2)nc(Nc2ccc3[nH]cnc3c2)n1)c1ccccc1 [compound 142]
– | 93.6 % of Ctl | – | 60.6 % of Ctl | 78.3 % of Ctl | 69.6 % of Ctl | 31.3 | O=C(NCCOCCOCCNc1nc(Nc2ccc(O)cc2)nc(Nc2ccc(C(=O)NCc3ccccc3F)cc2)n1)c1ccccc1 [compound 110]
– | 78.4 % of Ctl | – | 16.7 % of Ctl | – | – | – | O=C(NCCOCCOCCNc1nc(Nc2ccc(O)cc2)nc(Nc2ccc(C(=O)NCc3ccncc3)cc2)n1)c1ccccc1 [compound 71]
– | – | – | 61.4 % of Ctl | – | 41.0 % of Ctl | – | COC(=O)c1ccc(CNC(=O)c2ccc(Nc3nc(NCCOCCOCCNC(=O)c4ccccc4)nc(Nc4ccc(O)cc4)n3)cc2)cc1 [compound 114]
10.9 % of Ctl | – | – | 4.5 % of Ctl | – | 11.5 % of Ctl | – | CC(=O)NCCOCCNc1nc(Nc2ccc(O)cc2)nc(Nc2ccc(C(=O)NCc3ccccc3)cc2)n1 [compound 140]
22.6 % of Ctl | – | 76.5 % of Ctl | – | – | – | – | COC(=O)COCCOCCNC(=O)c1ccc(Nc2nc(NCCOCCOCCNC(=O)c3ccccc3)nc(Nc3ccc(O)cc3)n2)cc1 [compound 47]
5.0 % of Ctl | – | 12.9 % of Ctl | – | – | – | – | NCCOCCOCCNc1nc(Nc2ccccc2)nc(Nc2ccc(O)cc2)n1 [compound 45]
– | 80.6 % of Ctl | – | 33.7 % of Ctl | 71.3 % of Ctl | – | – | COc1ccc(CNC(=O)c2ccc(Nc3nc(NCCOCCOCCNC(=O)c4ccccc4)nc(Nc4ccc(O)cc4)n3)cc2)cc1 [compound 92]
20.4 % of Ctl | – | 50.1 % of Ctl | – | – | – | – | O=C(NCCCCCCNc1nc(Nc2ccccc2)nc(Nc2ccc(O)cc2)n1)c1ccccc1 [compound 62]
66.4 % of Ctl | 84.0 % of Ctl | 90.0 % of Ctl | 18.4 % of Ctl | – | – | 1380 | CCCCCCNC(=O)c1ccc(Nc2nc(NCCOCCOCCNC(=O)c3ccccc3)nc(Nc3ccc4[nH]ncc4c3)n2)cc1 [compound 65]
33.7 % of Ctl | – | 52.2 % of Ctl | – | – | – | – | O=C(NCCOCCOCCNc1nc(Nc2ccccc2)nc(Nc2ccc(-c3nnn[nH]3)cc2)n1)c1ccccc1 [compound 54]
39.0 % of Ctl | – | – | 30.7 % of Ctl | – | 16.3 % of Ctl | – | O=C(NCCOCCNc1nc(Nc2ccc(O)cc2)nc(Nc2ccc(C(=O)NCc3ccccc3)cc2)n1)Nc1ccccc1 [compound 139]
65.0 % of Ctl | – | 77.5 % of Ctl | – | – | – | 760 | CCCCCCNC(=O)c1ccc(Nc2nc(NCCOCCOCCNC(=O)c3ccccc3)nc(Nc3ccc(O)cc3)n2)cc1 [compound 44]
12.2 % of Ctl | – | 69.2 % of Ctl | – | – | – | – | O=C(NCCOCCOCCNc1nc(Nc2ccccc2)nc(Nc2ccc(O)cc2)n1)c1ccc(Br)cc1 [compound 31]
65.2 % of Ctl | 83.4 % of Ctl | 86.4 % of Ctl | – | – | – | 4040 | O=C(NCCOCCOCCNc1nc(Nc2ccccc2)nc(Nc2ccc3cn[nH]c3c2)n1)c1ccccc1 [compound 53]
32.4 % of Ctl | 67.6 % of Ctl | 81.5 % of Ctl | 7.0 % of Ctl | – | – | 4850 | O=C(NCCOCCOCCNc1nc(Nc2ccccc2)nc(Nc2ccc(O)cc2)n1)c1ccccc1 [compound 4]

Inh (% of Ctl) 1 μM | Inh (% of Ctl) 5 μM | Inh (% of Ctl) 10 μM | Inh (% of Ctl) 0.5 μM | Inh (% of Ctl) 2.5 μM | Inh (% of Ctl) 0.1 μM | IC50 [nM] | SMILES
32.4 % of Ctl | – | 79.0 % of Ctl | – | – | – | – | COc1cccc(C(=O)NCCOCCOCCNc2nc(Nc3ccccc3)nc(Nc3ccc(O)cc3)n2)c1 [compound 37]
79.5 % of Ctl | – | – | 70.2 % of Ctl | – | 44.5 % of Ctl | 31.7 | O=C(NCCOCCNc1nc(Nc2ccc(O)cc2)nc(Nc2ccc(C(=O)NCc3ccc(F)cc3)cc2)n1)c1ccccc1 [compound 147]
4.1 % of Ctl | – | 32.4 % of Ctl | – | – | – | – | NS(=O)(=O)c1ccc(Nc2nc(NCCOCCOCCNC(=O)c3ccccc3)nc(Nc3ccc(O)cc3)n2)cc1 [compound 46]
– | 16.6 % of Ctl | – | 15.0 % of Ctl | – | – | – | CN(C)C(=O)c1ccc(Nc2nc(NCCOCCOCCNC(=O)c3ccccc3)nc(Nc3ccc(O)cc3)n2)cc1 [compound 15]
– | 85.1 % of Ctl | – | 55.6 % of Ctl | 59.8 % of Ctl | 49.5 % of Ctl | – | O=C(NCCOCCOCCNc1nc(Nc2ccc(O)cc2)nc(Nc2ccc(C(=O)NCc3ccc(Br)cc3)cc2)n1)c1ccccc1 [compound 109]
13.2 % of Ctl | – | 54.6 % of Ctl | – | – | – | – | O=C(NCCOCCOCCNc1nc(Nc2ccccc2)nc(Nc2ccc(O)cc2)n1)c1cccnc1 [compound 33]
46.7 % of Ctl | – | – | 27.7 % of Ctl | – | 14.0 % of Ctl | – | O=C(NCc1ccccc1)c1ccc(Nc2nc(NCCOCCNC(=O)c3ccccc3C(F)(F)F)nc(Nc3ccc(O)cc3)n2)cc1 [compound 134]
– | 57.2 % of Ctl | – | 0.7 % of Ctl | 21.8 % of Ctl | – | – | O=C(NCCOCCOCCNc1nc(Nc2ccc(O)cc2)nc(Nc2ccc(C(=O)N[C@H](C(=O)O)c3ccccc3)cc2)n1)c1ccccc1 [compound 80]
34.8 % of Ctl | – | 84.1 % of Ctl | – | – | – | 1300 | COC(=O)CCCCCCNC(=O)c1ccc(Nc2nc(NCCOCCOCCNC(=O)c3ccccc3)nc(Nc3ccc(O)cc3)n2)cc1 [compound 43]
74.3 % of Ctl | – | – | 47.0 % of Ctl | – | 22.3 % of Ctl | – | O=C(NCCOCCOCCNc1nc(Nc2ccc(O)cc2)nc(Nc2ccc(C(=O)NCc3ccc(F)cc3F)cc2)n1)c1ccccc1 [compound 131]
8.6 % of Ctl | 23.9 % of Ctl | 51.9 % of Ctl | – | – | – | – | O=C(CCCCCCNc1nc(Nc2ccccc2)nc(Nc2ccc(O)cc2)n1)Nc1ccccc1 [compound 96]
– | 48.9 % of Ctl | – | 21.1 % of Ctl | – | – | – | O=C(NCCOCCO)c1ccc(Nc2nc(NCCOCCOCCNC(=O)c3ccccc3)nc(Nc3ccc(O)cc3)n2)cc1 [compound 18]
– | 1.7 % of Ctl | – | 0.4 % of Ctl | – | – | – | O=C(NCCOCCOCCNc1nc(Cl)nc(Nc2ccc(OCc3ccccc3)cc2)n1)c1ccccc1 [compound 3]
– | 82.0 % of Ctl | – | 51.6 % of Ctl | 56.9 % of Ctl | 45.0 % of Ctl | – | COC(=O)[C@@H](NC(=O)c1ccc(Nc2nc(NCCOCCOCCNC(=O)c3ccccc3)nc(Nc3ccc(O)cc3)n2)cc1)c1ccccc1 [compound 74]
– | 14.4 % of Ctl | – | 9.6 % of Ctl | – | – | – | NC(=O)c1ccc(Nc2nc(NCCOCCOCCNC(=O)c3ccccc3)nc(Nc3ccc(O)cc3)n2)cc1 [compound 20]
– | – | – | 24.3 % of Ctl | – | 3.2 % of Ctl | – | O=C(O)Cc1ccc(Nc2nc(NCCOCCOCCNC(=O)c3ccccc3)nc(Nc3ccc(C(=O)NCc4ccccc4)cc3)n2)cc1 [compound 125]
– | 86.0 % of Ctl | – | 33.8 % of Ctl | 76.5 % of Ctl | – | – | O=C(NCCOCCOCCNc1nc(Nc2ccc(O)cc2)nc(Nc2ccc(C(=O)NCc3cccc4ccccc34)cc2)n1)c1ccccc1 [compound 89]
14.2 % of Ctl | – | 62.8 % of Ctl | – | – | – | – | O=C(O)CCCCCCNC(=O)c1ccc(Nc2nc(NCCOCCOCCNC(=O)c3ccccc3)nc(Nc3ccc(O)cc3)n2)cc1 [compound 48]
